Data reported in patent US11352350B2, “IRAK degraders and uses thereof” (Kymera Therapeutics, Inc., priority 2018, dated 2022).
Read-outs that look alike come from different tables or passages of the source.

Key:
IRAK4 = IRAK4 (Homo sapiens (Human), UniProt Q9NWZ3); experiment: IRAK4 MSD degradation in OCI-LY10; assay type: cell-based
In short: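 Remaining IRAK4 quantified by electrochemiluminescent MSD sandwich assay with two anti-IRAK4 antibodies. Compounds were dosed as 8 concentrations in 1:3 steps from a 1 to 10 μM final top on OCI-LY10 cells, incubated 4 to 24 h at 37° C. under 5% CO2. DC50 fitted with a three-parameter logistic curve.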

OCI-LY10 = experiment: CTG Cell Viability Assay - OCI-LY10; assay type: cell-based, human; settings: Homo sapiens, OCI-Ly10, 96 h, OCI-LY10, 4 days; read-out: CTG Cell Viability Assay - OCI-LY10: Average external-IC50
In short: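 Viability read by CellTiter-Glo luminescence after 4 days at 37° C under 5% CO2 with compound (top 10 μM final, 1:3 steps, 9 doses, DMSO 0.2%). Three-parameter logistic fit gave IC50.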

[1] = OCI-LY10, 4 hrs, MSD, read-out: IRAK4 MSD degradation in OCI-LY10 at 4 hrs: Average external-Abs DC50
[2] = OCI-LY10, 24 hrs, MSD, read-out: IRAK4 MSD degradation in OCI-LY10 at 24 hrs: Average external-Abs DC50
[3] = OCI-LY10, 4 hrs, read-out: IRAK4 MSD degradation in OCI-LY10 at 4 hrs: DC50
[4] = OCI-LY10, 24 hrs, read-out: IRAK4 MSD degradation in OCI-LY10 at 24 hrs: DC50

Sequence of IRAK4 (Q9NWZ3 whole entry): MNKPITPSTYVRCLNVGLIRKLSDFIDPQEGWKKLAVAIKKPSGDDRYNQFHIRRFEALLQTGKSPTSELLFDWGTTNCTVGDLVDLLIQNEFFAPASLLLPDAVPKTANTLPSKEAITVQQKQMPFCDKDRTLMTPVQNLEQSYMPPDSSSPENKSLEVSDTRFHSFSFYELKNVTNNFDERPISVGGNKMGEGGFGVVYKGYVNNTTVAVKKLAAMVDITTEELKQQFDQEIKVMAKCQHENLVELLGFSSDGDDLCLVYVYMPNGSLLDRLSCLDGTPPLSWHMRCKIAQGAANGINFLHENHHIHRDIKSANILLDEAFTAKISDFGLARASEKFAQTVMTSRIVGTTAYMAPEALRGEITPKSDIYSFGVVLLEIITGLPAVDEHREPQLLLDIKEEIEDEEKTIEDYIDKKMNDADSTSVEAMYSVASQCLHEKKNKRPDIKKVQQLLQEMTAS

SMILES	DC50 (IRAK4; [1]) [nM]	DC50 (IRAK4; [2]) [nM]	IC50 (OCI-LY10) [nM]	DC50 (IRAK4; [3]) [nM]	DC50 (IRAK4; [4]) [nM]
O=C1CCC(N2C(=O)c3cccc(NCCCOC[C@@H]4CN(Cc5ccc(-n6cc(NC(=O)c7coc(-c8ccnc(NCC9CC9)c8)n7)c(C(F)F)n6)cc5)CCO4)c3C2=O)C(=O)N1 (stereo partly shown) [I-393]	100 to 1000	10 to 100	50 to 100	–	–
CN(C(=O)c1coc(-c2ccnc(NCC3CC3)c2)n1)c1cn([C@H]2CC[C@H](CN(C)C3CCN(Cc4cccc5c4n(C)c(=O)n5C4CCC(=O)NC4=O)CC3)CC2)nc1C(F)F (stereo partly shown) [I-395]	100 to 1000	–	> 1000	–	–
CN(CCCOCCCNc1cccc2c1C(=O)N(C1CCC(=O)NC1=O)C2=O)C[C@H]1CC[C@H](n2cc(NC(=O)c3coc(-c4ccnc(N5CCOCC5)c4)n3)c(C(F)F)n2)CC1 (stereo partly shown) [I-397]	100 to 1000	100 to 1000	50 to 100	–	–
CN(CCCOCCCNc1cccc2c1C(=O)N(C1CCC(=O)NC1=O)C2=O)C[C@H]1CC[C@H](n2cc(NC(=O)c3coc(-c4ccnc(N[C@H]5CCCC[C@H]5O)c4)n3)c(C(F)F)n2)CC1 (stereo partly shown) [I-398]	10 to 100	10 to 100	50 to 100	–	–
CN(CCCOCCCNc1cccc2c1C(=O)N(C1CCC(=O)NC1=O)C2=O)C[C@H]1CC[C@H](n2cc(NC(=O)c3coc(-c4ccnc(N[C@@H]5CCCC[C@@H]5O)c4)n3)c(C(F)F)n2)CC1 (stereo partly shown) [I-399]	10 to 100	< 10	< 50	–	–
CN(C[C@H]1CC[C@H](n2cc(NC(=O)c3coc(-c4ccnc(NCC5CC5)c4)n3)c(C(F)F)n2)CC1)C1CCN(Cc2cccc3c2n(C)c(=O)n3C2CCC(=O)NC2=O)CC1 (stereo partly shown) [I-400]	< 10	–	< 50	–	–
CN(CCCOCCCNc1cccc2c1C(=O)N(C1CCC(=O)NC1=O)C2=O)C[C@H]1CC[C@H](n2cc(N(C)C(=O)c3coc(-c4ccnc(NCC5CC5)c4)n3)c(C(F)F)n2)CC1 (stereo partly shown) [I-401]	100 to 1000	> 1000	500 to 1000	–	–
O=C1CCC(N2C(=O)c3cccc(NCCCOC4CCN(Cc5ccc(-n6cc(NC(=O)c7cnn8ccc(N9CCOCC9)nc78)c(C(F)F)n6)cc5)CC4)c3C2=O)C(=O)N1 (stereo not shown) [I-403]	> 1000	10 to 100	50 to 100	–	–
CN(C[C@H]1CC[C@H](n2cc(NC(=O)c3cnn4ccc(N5CCOCC5)nc34)c(C(F)F)n2)CC1)C1CCN(CCc2cccc3c2n(C)c(=O)n3C2CCC(=O)NC2=O)CC1 (stereo partly shown) [I-404]	< 10	–	< 50	–	–
O=C(Nc1cn([C@H]2CC[C@H](CNC[C@H]3CC[C@H](n4cc(NC(=O)c5cnn6ccc(N7CCOCC7)nc56)c(C(F)F)n4)CC3)CC2)nc1C(F)F)c1cnn2ccc(N3CCOCC3)nc12 [I-408, N-[3-(difluoromethyl)-1-[4-[[[4-[3-(difluoromethyl)-4-[(5-morpholinopyrazolo[1,5-a]pyrimidine-3-carbonyl)amino]pyrazol-1-yl]cyclohexyl]methylamino]methyl]cyclohexyl]pyrazol-4-yl]-5-morpholino-pyrazol [1,5-a] pyrimidine-3-carboxamide]	> 1000	> 1000	> 1000	–	–
Cn1c(=O)n(C2CCC(=O)NC2=O)c2cccc(-c3cccc(CCCOCc4ccc(-n5cc(NC(=O)c6cnn7ccc(N8CCOCC8)nc67)c(C(F)F)n5)cc4)c3)c21 (stereo not shown) [I-409]	> 1000	–	> 1000	–	–
CN(CCC#CCN)C[C@H]1CC[C@H](n2cc(NC(=O)c3cnn4ccc(N5CCOCC5)nc34)c(C(F)F)n2)CC1 [I-412, N-[1-[4-[[5-aminopent-3-ynyl(methyl)amino]methyl]cyclohexyl]-3-(difluoromethyl)pyrazol-4-yl]-5-morpholino-pyrazolo [1,5-a]pyrimidine-3-carboxamide]	> 1000	> 1000	> 1000	–	–
CN(CCCOCCCNc1cccc2c1C(=O)N(C1CCC(=O)NC1=O)C2=O)C[C@H]1CC[C@H](n2cc(NC(=O)c3cnn4ccc(NCC5CC5)nc34)c(C(F)F)n2)CC1 (stereo partly shown) [I-437]	10 to 100	10 to 100	100 to 500	–	–
O=C1CCC(N2C(=O)c3cccc(NCCCOC4CCN(Cc5ccc(-n6cc(NC(=O)c7cnn8ccc(N9C[C@H]%10CC9CO%10)nc78)c(C(F)F)n6)cc5)CC4)c3C2=O)C(=O)N1 (stereo partly shown) [I-438]	100 to 1000	10 to 100	50 to 100	–	–
O=C1CCC(N2C(=O)c3cccc(NCCCOCCCS(=O)(=O)NC(=O)[C@H]4CC[C@H](n5cc(NC(=O)c6cnn7ccc(N8C[C@H]9CC8CO9)nc67)c(C(F)F)n5)CC4)c3C2=O)C(=O)N1 (stereo partly shown) [I-440]	100 to 1000	> 1000	> 1000	–	–
O=C1CCC(N2C(=O)c3ccnc(NCCCOC4CCN(Cc5ccc(-n6cc(NC(=O)c7cnn8ccc(N9CCOCC9)nc78)c(C(F)F)n6)cc5)CC4)c3C2=O)C(=O)N1 (stereo not shown) [I-441]	10 to 100	10 to 100	> 1000	–	–
O=C1CCC(N2C(=O)c3cccc(NCC(=O)N4CC5(CCN(C[C@H]6CC[C@H](n7cc(NC(=O)c8cnn9ccc(N%10CCOCC%10)nc89)c(C(F)F)n7)CC6)CC5)C4)c3C2=O)C(=O)N1 (stereo partly shown) [I-443]	–	–	< 50	< 10	< 10
O=C1CCC(N2C(=O)c3cccc(NCCCOC4CCN(C[C@H]5OC[C@H](n6cc(NC(=O)c7cnn8ccc(N9CCOCC9)nc78)c(C(F)F)n6)CO5)CC4)c3C2=O)C(=O)N1 (stereo partly shown) [I-451, N-[3-(difluoromethyl)-1-[2-[[4-[3-[[2-(2,6-dioxo-3-piperidyl)-1,3-dioxo-isoindolin-4-yl]amino]propoxy]-1-piperidyl]methyl]-1,3-dioxan-5-yl]pyrazol-4-yl]-5-morpholino-pyrazolo [1,5-a] pyrimidine-3-carboxamide]	–	–	100 to 500	10 to 100	10 to 100
CN(CCc1ccc(CNc2cccc3c2C(=O)N(C2CCC(=O)N(C)C2=O)C3=O)cc1)C[C@H]1CC[C@H](n2cc(NC(=O)c3cnn4ccc(N5C[C@H]6CC5CO6)nc34)c(C(F)F)n2)CC1 (stereo partly shown) [I-452]	–	–	> 1000	100 to 1000	> 1000
CN(C[C@H]1CC[C@H](n2cc(NC(=O)c3cnn4ccc(NCC5CC5)nc34)c(C(F)F)n2)CC1)[C@H]1CC[C@H](Nc2cccc3c2C(=O)N(C2CCC(=O)NC2=O)C3=O)CC1 (stereo partly shown) [I-453]	–	–	50 to 100	10 to 100	< 10
CN(C[C@H]1CC[C@H](n2cc(NC(=O)c3cnn4ccc(N5C[C@H]6CC5CO6)nc34)c(C(F)F)n2)CC1)C1CCC2(CC1)CC(Nc1cccc3c1C(=O)N(C1CCC(=O)NC1=O)C3=O)C2 (stereo partly shown) [I-454]	–	–	50 to 100	100 to 1000	10 to 100
CN(CC1CC1)c1ccn2ncc(C(=O)Nc3cn([C@H]4CC[C@H](CN(C)[C@H]5CC[C@H](Nc6cccc7c6C(=O)N(C6CCC(=O)NC6=O)C7=O)CC5)CC4)nc3C(F)F)c2n1 (stereo partly shown) [I-455]	–	–	50 to 100	10 to 100	10 to 100
O=C1CCC(N2C(=O)c3cccc(NCCCOCCCN4CCN(c5ncc(-n6cc(NC(=O)c7cnn8ccc(N9CCOCC9)nc78)c(C(F)F)n6)cn5)CC4)c3C2=O)C(=O)N1 (stereo not shown) [I-456]	–	–	< 50	100 to 1000	100 to 1000
CN(CC1CCC(n2cc(NC(=O)c3cnn4ccc(N5C[C@H]6C[C@@H]5CO6)nc34)c(C(F)F)n2)CC1)[C@H]1C[C@H](Nc2cccc3c2C(=O)N(C2CCC(=O)NC2=O)C3=O)C1 (stereo partly shown) [I-457]	–	–	> 1000	100 to 1000	> 1000
CN(C[C@H]1CC[C@H](n2cc(NC(=O)c3cnn4ccc(N5CCOCC5)nc34)c(C(F)F)n2)CC1)[C@H]1C[C@H](Nc2cccc3c2C(=O)N(C2CCC(=O)NC2=O)C3=O)C1 (stereo partly shown) [I-458]	–	–	> 1000	100 to 1000	> 1000
CN(C[C@H]1CC[C@H](C2N=C(NC(=O)c3cnn4ccc(N5CCOCC5)nc34)C(C(F)F)=N2)CC1)C1CCC(CNc2cccc3c2C(=O)N(C2CCC(=O)NC2=O)C3=O)CC1 (stereo partly shown) [I-459]	–	–	< 50	100 to 1000	10 to 100
O=C1CCC(N2C(=O)c3cccc(NCCCCC[C@@H]4CN(C[C@H]5CC[C@H](n6cc(NC(=O)c7cnn8ccc(N9C[C@H]%10C[C@@H]9CO%10)nc78)c(C(F)F)n6)CC5)CCO4)c3C2=O)C(=O)N1 (stereo partly shown) [I-460]	–	–	50 to 100	100 to 1000	10 to 100
O=C1CCC(N2C(=O)c3cccc(NCC4CC5(C4)CN(C[C@H]4CC[C@H](n6cc(NC(=O)c7cnn8ccc(N9C[C@H]%10C[C@@H]9CO%10)nc78)c(C(F)F)n6)CC4)C5)c3C2=O)C(=O)N1 (stereo partly shown) [I-461]	–	–	< 50	100 to 1000	–
